Key:
Assay in all cases: relative viability (nuclei count vs DMSO), 5 days (fraction); higher = more cells survive
[1] = tested on: 201T
In short: (§1)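 Dosing by pin tool came one day after lung cancer cell lines were seeded in 1536-well plates, using either one drug or a fixed anchor-drug dose plus five library-drug doses (not always all listed) in √10 steps. After 5 days, nuclei were counted on 4× images. Relative viability is treated-well nuclei count divided by vehicle-well nuclei count, and values are medians of duplicate plates.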

[2] = tested on: ABC-1
In short: as §1

[3] = tested on: CAL-12T
In short: as §1

[4] = tested on: COR-L23
In short: as §1

[5] = tested on: HCC-44
In short: as §1

[6] = tested on: HOP-62
In short: as §1

[7] = tested on: LC-2-ad
In short: as §1

[8] = tested on: LCLC-103H
In short: as §1

[9] = tested on: NCI-H1355
In short: as §1

[10] = tested on: NCI-H1395
In short: as §1

[11] = tested on: NCI-H1651
In short: as §1

[12] = tested on: NCI-H1666
In short: as §1

[13] = tested on: NCI-H1993
In short: as §1

[14] = tested on: NCI-H2085
In short: as §1

[15] = tested on: NCI-H2170
In short: as §1

[16] = tested on: NCI-H2228
In short: as §1

[17] = tested on: NCI-H2347
In short: as §1

[18] = tested on: NCI-H23
In short: as §1

[19] = tested on: NCI-H322M
In short: as §1

[20] = tested on: NCI-H520
In short: as §1

[21] = tested on: NCI-H647
In short: as §1

[22] = tested on: NCI-H661
In short: as §1

[23] = tested on: NCI-H838
In short: as §1

O=C(O)CCCCC(CCSCc1ccccc1)SCc1ccccc1 (stereo not given) [CPI-613] + Cc1nc(NC(=O)N2CCC[C@H]2C(N)=O)sc1-c1ccnc(C(C)(C)C(F)(F)F)c1 [Alpelisib] (partner 2 µM)
relative viability ([1]; first compound 5 µM): 1 | relative viability ([1]; first compound 15.81 µM): 0.976 | relative viability ([1]; first compound 50 µM): 0.996 | relative viability ([1]; first compound 158.11 µM): 1.01 | relative viability ([1]; first compound 500 µM): 1.01 | relative viability ([2]; first compound 5 µM): 1.02 | relative viability ([2]; first compound 15.81 µM): 1.2 | relative viability ([2]; first compound 50 µM): 1.26 | relative viability ([2]; first compound 158.11 µM): 0.39 | relative viability ([2]; first compound 500 µM): 0.223 | relative viability ([3]; first compound 5 µM): 1 | relative viability ([3]; first compound 15.81 µM): 1.11 | relative viability ([3]; first compound 50 µM): 1.14 | relative viability ([3]; first compound 158.11 µM): 0.0352 | relative viability ([3]; first compound 500 µM): 0.0082 | relative viability ([4]; first compound 5 µM): 0.745 | relative viability ([4]; first compound 15.81 µM): 0.696 | relative viability ([4]; first compound 50 µM): 0.852 | relative viability ([4]; first compound 158.11 µM): 0.281 | relative viability ([4]; first compound 500 µM): 0.0191 | relative viability ([5]; first compound 5 µM): 0.841 | relative viability ([5]; first compound 15.81 µM): 0.758 | relative viability ([5]; first compound 50 µM): 0.92 | relative viability ([5]; first compound 158.11 µM): 0.374 | relative viability ([5]; first compound 500 µM): 0.041 | relative viability ([6]; first compound 5 µM): 1.07 | relative viability ([6]; first compound 15.81 µM): 0.833 | relative viability ([6]; first compound 50 µM): 0.916 | relative viability ([6]; first compound 158.11 µM): 0.189 | relative viability ([6]; first compound 500 µM): 0.246 | relative viability ([7]; first compound 5 µM): 0.83 | relative viability ([7]; first compound 15.81 µM): 0.818 | relative viability ([7]; first compound 50 µM): 0.8 | relative viability ([7]; first compound 158.11 µM): 0.201 | relative viability ([7]; first compound 500 µM): 0.006 | relative viability ([8]; first compound 5 µM): 0.845 | relative viability ([8]; first compound 15.81 µM): 0.974 | relative viability ([8]; first compound 50 µM): 0.883 | relative viability ([8]; first compound 158.11 µM): 0.873 | relative viability ([8]; first compound 500 µM): 0.964 | relative viability ([9]; first compound 5 µM): 0.834 | relative viability ([9]; first compound 15.81 µM): 0.813 | relative viability ([9]; first compound 50 µM): 0.918 | relative viability ([9]; first compound 158.11 µM): 0.413 | relative viability ([9]; first compound 500 µM): 0.134 | relative viability ([10]; first compound 5 µM): 0.988 | relative viability ([10]; first compound 15.81 µM): 1.08 | relative viability ([10]; first compound 50 µM): 1.27 | relative viability ([10]; first compound 158.11 µM): 0.99 | relative viability ([10]; first compound 500 µM): 0.75 | relative viability ([11]; first compound 5 µM): 0.969 | relative viability ([11]; first compound 15.81 µM): 0.895 | relative viability ([11]; first compound 50 µM): 0.967 | relative viability ([11]; first compound 158.11 µM): 0.41 | relative viability ([11]; first compound 500 µM): 0.116 | relative viability ([12]; first compound 5 µM): 0.935 | relative viability ([12]; first compound 15.81 µM): 0.896 | relative viability ([12]; first compound 50 µM): 1.27 | relative viability ([12]; first compound 158.11 µM): 0.158 | relative viability ([12]; first compound 500 µM): 0.138 | relative viability ([13]; first compound 5 µM): 0.709 | relative viability ([13]; first compound 15.81 µM): 0.721 | relative viability ([13]; first compound 50 µM): 0.752 | relative viability ([13]; first compound 158.11 µM): 0.485 | relative viability ([13]; first compound 500 µM): 0.432 | relative viability ([14]; first compound 5 µM): 1.01 | relative viability ([14]; first compound 15.81 µM): 0.927 | relative viability ([14]; first compound 50 µM): 0.906 | relative viability ([14]; first compound 158.11 µM): 0.591 | relative viability ([14]; first compound 500 µM): 0.242 | relative viability ([15]; first compound 5 µM): 0.808 | relative viability ([15]; first compound 15.81 µM): 0.766 | relative viability ([15]; first compound 50 µM): 0.796 | relative viability ([15]; first compound 158.11 µM): 0.547 | relative viability ([15]; first compound 500 µM): 0.483 | relative viability ([16]; first compound 5 µM): 0.799 | relative viability ([16]; first compound 15.81 µM): 0.6 | relative viability ([16]; first compound 50 µM): 0.547 | relative viability ([16]; first compound 158.11 µM): 0.344 | relative viability ([16]; first compound 500 µM): 0.0239 | relative viability ([17]; first compound 5 µM): 1.02 | relative viability ([17]; first compound 15.81 µM): 0.963 | relative viability ([17]; first compound 50 µM): 0.959 | relative viability ([17]; first compound 158.11 µM): 1.05 | relative viability ([17]; first compound 500 µM): 0.973 | relative viability ([18]; first compound 5 µM): 0.684 | relative viability ([18]; first compound 15.81 µM): 0.604 | relative viability ([18]; first compound 50 µM): 0.685 | relative viability ([18]; first compound 158.11 µM): 0.143 | relative viability ([18]; first compound 500 µM): 0.0565 | relative viability ([19]; first compound 5 µM): 0.746 | relative viability ([19]; first compound 15.81 µM): 0.721 | relative viability ([19]; first compound 50 µM): 0.729 | relative viability ([19]; first compound 158.11 µM): 0.416 | relative viability ([19]; first compound 500 µM): 0.757 | relative viability ([20]; first compound 5 µM): 0.731 | relative viability ([20]; first compound 15.81 µM): 1.01 | relative viability ([20]; first compound 50 µM): 0.845 | relative viability ([20]; first compound 158.11 µM): 0.403 | relative viability ([20]; first compound 500 µM): 0.112 | relative viability ([21]; first compound 5 µM): 1.19 | relative viability ([21]; first compound 15.81 µM): 0.968 | relative viability ([21]; first compound 50 µM): 0.769 | relative viability ([21]; first compound 158.11 µM): 0.0933 | relative viability ([21]; first compound 500 µM): 0.0159 | relative viability ([22]; first compound 5 µM): 0.68 | relative viability ([22]; first compound 15.81 µM): 0.515 | relative viability ([22]; first compound 50 µM): 0.939 | relative viability ([22]; first compound 158.11 µM): 0.594 | relative viability ([22]; first compound 500 µM): 0.608 | relative viability ([23]; first compound 5 µM): 0.979 | relative viability ([23]; first compound 15.81 µM): 0.922 | relative viability ([23]; first compound 50 µM): 0.91 | relative viability ([23]; first compound 158.11 µM): 0.589 | relative viability ([23]; first compound 500 µM): 0.0842

Reference: the supplement of paper PMC10307832
